16 molecules from patent US20030045557A1, “Thiadiazoles and oxadiazoles and their use as phosphodiesterase-7 inhibitors” (priority 2000, published 2003) can be followed below.

Structures are written as SMILES.

The target of the experiment is T1, PDE7A1 (Homo sapiens, UniProt Q13946).
T1 construct: made in house; host or cells: Sf21 insect cells (baculovirus expression system)
Description: In vitro inhibition of phosphodiesterase 7 (enzymatic activity, cAMP substrate 50 nM). It is filed as biochemical. The settings on record: PDE7A1 expressed in Sf 21 insect cells; cAMP 50 nM; reaction 10 minutes; read-out: IC50 (PDE7). On the procedure: The capacity of the compounds of the invention to inhibit cyclic nucleotide phosphodiesterases was evaluated by measuring their IC50 (concentration necessary to inhibit the enzymatic activity by 50%).
PDE3A3, PDE4D3, and PDE7A1 were cloned and expressed in insect cells Sf 21 using the baculovirus expression system. The source of PDE103 and of PDE503 were human cell lines (respectively TPH1 human monocytes and MCF7 human breast adenocarcinoma). The various types of phosphodiesterases were obtained partially purified on an anion exchange column (Mono Q) according to a method adapted from Lavan B. E., Lakey T., Houslay M.D., Biochemical Pharmacology, 1989;38(22):4123-4136.
Measurement of the enzymatic activity for the various types of PDE was then made according to a method adapted from Thompson W. J. et al., Advances in Cyclic Nucleotide Research, ed. G. Brooker et al. New York: Raven Press, 1979;10:69-92.
The substrate used was cGMP for PDE1 and PDE5 and cAMP for PDE3, PDE4, and PDE7. The substrate concentration was 0.2 μM for PDE1, PDE3, and PDE5, 0.25 μM for PDE4, and 50 nM for PDE7.
The enzymatic reaction was stopped after 1 hour for PDE1, PDE3, and PDE5 and 10 minutes for PDE4 and PDE7.

T1 sequence (Q13946 whole entry, species assumed): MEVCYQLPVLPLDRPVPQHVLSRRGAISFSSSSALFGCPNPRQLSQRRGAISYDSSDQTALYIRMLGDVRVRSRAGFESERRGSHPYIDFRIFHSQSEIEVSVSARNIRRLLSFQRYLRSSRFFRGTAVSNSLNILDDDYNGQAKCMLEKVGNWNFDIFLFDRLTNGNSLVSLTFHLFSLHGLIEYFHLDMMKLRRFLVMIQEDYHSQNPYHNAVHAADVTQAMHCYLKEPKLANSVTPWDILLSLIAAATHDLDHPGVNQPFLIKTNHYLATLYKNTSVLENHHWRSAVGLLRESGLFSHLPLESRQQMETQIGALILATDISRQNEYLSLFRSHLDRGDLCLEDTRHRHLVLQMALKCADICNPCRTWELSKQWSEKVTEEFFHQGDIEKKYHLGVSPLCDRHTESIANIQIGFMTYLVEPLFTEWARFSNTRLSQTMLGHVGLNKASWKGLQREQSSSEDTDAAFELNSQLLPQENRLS

Turning to `Cn1nc(-c2ccc(S(C)(=O)=O)cc2)s/c1=N\c1cccc(C(=O)O)c1` [Example I4], the IC50 (commonly the concentration that inhibits the measured activity by half) was 150 nM.

Consider `Cn1nc(-c2cccc(O)c2)s/c1=N\C1CCCCC1` [Example I36, 3-(5-Cyclohexylimino-4-methyl-4,5-dihydro-[1,3,4]thiadiazol-2-yl)-phenol], for which the IC50 was 290 nM. Regarding `COc1ccc(-c2nn(C)/c(=N/C3CCCCC3)s2)cc1O` [Example I32, 5-(5-Cyclohexylimino-4-methyl-4,5-dihydro-[1,3,4]thiadiazol-2-yl)-2-methoxy-phenol; compound with 1,1,1-trifluoro-methanesulfonic acid], the IC50 turned out to be 230 nM.

For `COC(=O)c1cccc(-c2nn(C)/c(=N/C3CCCCC3)s2)c1` [Example I21, 3-(5-Cyclohexylimino-4-methyl-4,5-dihydro-[1,3,4]thiadiazol-2-yl)-benzoic acid methyl ester], the IC50 amounted to 150 nM. For `Cn1nc(-c2ccc(S(C)(=O)=O)cc2)s/c1=N\[C@@H]1CCCC[C@H]1O` (relative stereo) [Example I9, (1R*,2R*)-2-[5-(4-Methanesulfonyl-phenyl)-3-methyl-3H-[1,3,4]thiadiazol-2-ylideneamino-cyclohexanol], the IC50 was 280 nM. With `Cn1nc(-c2ccc(Cl)cc2)s/c1=N\c1cccc(C(=O)O)c1` [Example I1, 3-[5-(4-Chloro-phenyl)-3-methyl-3H-[1,3,4]thiadiazol-2-ylideneamino]-benzoic acid], the IC50 stood at 150 nM.

With `Cn1nc(-c2ccc(Cl)cc2)s/c1=N\C1CC2CCC1C2` (stereo not shown) [Example I7, Bicyclo[2.2.1]hept-2-yl-[5-(4-chloro-phenyl)-3-methyl-3H-[1,3,4]thiadiazol-2-ylidene]-amine], the concentration for half-maximal inhibition (IC50) is 1050 nM. As for `Cn1nc(-c2ccc(Cl)cc2)s/c1=N\c1ccc(F)c(C(=O)O)c1` [I2,1, 5-[5-(4-Chloro-phenyl)-3-methyl-3H[1,3,4]thiadiazol-2-ylideneamino]-2-fluoro-benzoic acid], the figure is 130 nM; as for `COc1ccc(-c2nn(C)/c(=N/C3CCCCC3)s2)cc1OC` [Example I34, Cyclohexyl-[5-(3,4-dimethoxy-phenyl)-3-methyl-3H-[1,3,4]thiadiazol-2-ylidene]-amine], 630 nM.

On to `Cn1nc(-c2ccccc2Cl)s/c1=N\C1CCCCC1` [I10,1, [5-(2-Chloro-phenyl)-3-methyl-3H-[1,3,4]thiadiazol-2-ylidene]-cyclohexyl-amine], for which the IC50 was 1300 nM. Consider `Cn1nc(-c2ccc3cccc(O)c3n2)s/c1=N\C1CCCCC1` [Example I24, 2-(5-Cyclohexylimino-4-methyl-4,5-dihydro-[1,3,4]thiadiazol-2-yl)-quinolin-8-ol], for which the IC50 came to 360 nM. As to `Cn1nc(-c2ccc(C#N)cc2)s/c1=N\C1CCCCC1` [Example I14, 4-(5-Cyclohexylimino-4-methyl-4,5-dihydro-[1,3,4]thiadiazol-2-yl)-benzonitrile], the IC50 was 270 nM.

Turning to `Cn1nc(-c2cc3cc(Cl)ccc3[nH]2)s/c1=N\C1CCCCC1` [Example I31, [5-(5-Chloro-1H-indol-2-yl)-3-methyl-3H-[1,3,4]thiadiazol-2-ylidene]-cyclohexyl-amine; compound with trifluoro-methanesulfonic acid], the IC50 worked out at 230 nM. `COc1c(O)cc(-c2nn(C)/c(=N/C3CCCCC3)s2)cc1O` [I18,3, 5-(5-Cyclohexylimino-4-methyl-4,5-dihydro[1,3,4]thiadiazol-2yl)-2-methoxy-benzene-1,3-diol; compound with trifluoro-methanesulfonic acid]: the IC50 is 61 nM. For `CN(C)CCNC(=O)c1ccc(-c2nn(C)/c(=N/C3CCCCC3)s2)cc1` [I37,9, 4-(5-Cyclohexylimino-4-methyl-4,5-dihydro[1,3,4]thiadiazol-2-yl)-N-(2-dimethylamino-ethyl)-benzamide], the IC50 is 75 nM. Take `Cn1nc(-c2cccc3cccnc23)s/c1=N\C1CCCCC1` [Example I28, Cyclohexyl-(3-methyl-5-quinolin-8-yl-3H-[1,3,4]thiadiazol-2-ylidene)-amine]: the IC50 was 230 nM.
